Results taken from patent US12310975B2, “Modulators of BCL6 proteolysis and associated methods of use” (Arvinas Operations, Inc., priority 2019, dated 2025).
pIC50: −log10 of the molar value.

How the values were obtained:
[1] = molecular target: T1, BCL6 (Homo sapiens (Human), UniProt P41182); test: BCL6 TR-FRET assay (BCL6-Avitag-Biotin / BCoR-Cy5 peptide); assay type: binding; details: for pIC50: read-out: IC50; for IC50: class symbols A-D, read-out: IC50 (nM)***
Procedure, shortened: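 TR-FRET displacement assay: biotinylated His-SUMO-BCL6-Avitag (2 nM) pre-incubated 30 min at room temperature with compound (12-point 3-fold titration), then BCoR-Cy5 peptide (100 nM) and Eu-streptavidin (2 nM) added. Buffer: 50 mM HEPES pH 7.5, 125 mM NaCl, 0.01% Triton X, glutathione or DTT, 0.03% BSA. Read after 2 h.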

[2] = molecular target: T1, BCL6; test: Immunofluorescence high content imaging of BCL6 degradation in T47D cells; assay type: cell-based; details: for Dmax: T47D; for DC50: class symbols A-D, read-out: EC50 (nM)*
Procedure, shortened: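 T47D cells were treated 3 days at 37 °C with an 11-point 3-fold dilution series (top 0.1 or 1 μM), then fixed, permeabilized and immunostained for BCL6 with Alexa-488 secondary, CellMask and Hoechst. BCL6 signal was imaged at 10×, 4 fields/well, with top-hat smoothing.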

Structure (SMILES) | pIC50 [1] | Dmax [2] | IC50 [1] | Dmax ([2]; maximum, class symbols A-C) | DC50 [2] | EC50 [1] | IC50 [2]
CNC(=O)COc1cc2cc(Nc3nc(N4CCC(CN5CCC6(CCN(c7ccc8c(c7)C(=O)N(C7CCC(=O)NC7=O)C8=O)C6)C5)CC4)ncc3Cl)ccc2n(C(C)C)c1=O (centres unmarked) [compound 534, 2-{[6-({5-chloro-2-[4-({7-[2-(2,6-dioxopiperidin-3-yl)-1,3-dioxo-2,3-dihydro-1H-isoindol-5-yl]-2,7-diazaspiro[4.4]nonan-2-yl}methyl)piperidin-1-yl]pyrimidin-4-yl}amino)-2-oxo-1-(propan-2-yl)-1,2-dihydroquinolin-3-yl]oxy}-N-methylacetamide] | > 8.00 | ≥ 70% | – | – | – | – | –
CNC(=O)COc1cc2cc(Nc3nc(N4CCN(CC5CC6(CCN(c7ccc8c(c7)C(=O)N(C7CCC(=O)NC7=O)C8=O)CC6)C5)CC4)ncc3Cl)ccc2n(C(C)C)c1=O (centres unmarked) [compound 516, 2-{[6-({5-chloro-2-[4-({7-[2-(2,6-dioxopiperidin-3-yl)-1,3-dioxo-2,3-dihydro-1H-isoindol-5-yl]-7-azaspiro[3.5]nonan-2-yl}methyl)piperazin-1-yl]pyrimidin-4-yl}amino)-2-oxo-1-(propan-2-yl)-1,2-dihydroquinolin-3-yl]oxy}-N-methylacetamide] | > 8.00 | 50 to 70% | – | – | – | – | –
CC(=O)COc1cc2cc(Nc3nc(N4CCN(C5CCN(c6ccc7c(c6)C(=O)N(C6CCC(=O)NC6=O)C7=O)CC5)CC4)ncc3Cl)ccc2n(C)c1=O (centres unmarked) [compound 160, 5-(4-(4-(5-chloro-4-((1-methyl-2-oxo-3-(2-oxopropoxy)-1,2-dihydroquinolin-6-yl)amino)pyrimidin-2-yl)piperazin-1-yl)piperidin-1-yl)-2-(2,6-dioxopiperidin-3-yl)isoindoline-1,3-dione] | – | – | 10 to 50 nM | 50 to 70% | 10 to 50 nM | – | –
Cn1c(=O)ccc2cc(Nc3nc(N4CCC(CN5CCN(c6ccc7c(c6)C(=O)N(C6CCC(=O)NC6=O)C7=O)CC5)CC4)ncc3Cl)ccc21 (centres unmarked) [compound 150, 5-(4-((1-(5-chloro-4-((1-methyl-2-oxo-1,2-dihydroquinolin-6-yl)amino)pyrimidin-2-yl)piperidin-4-yl)methyl)piperazin-1-yl)-2-(2,6-dioxopiperidin-3-yl)isoindoline-1,3-dione] | – | – | ≥ 100 nM | – | > 100 nM | – | –
CNC(=O)C1Oc2cc(Nc3nc(N4CCN(C(C)(C)C5CCN(c6ccc7c(c6)C(=O)N(C6CCC(=O)NC6=O)C7=O)CC5)CC4)ncc3Cl)ccc2N(C)C1=O (centres unmarked) [compound 274, 7-({5-chloro-2-[4-(2-{1-[2-(2,6-dioxopiperidin-3-yl)-1,3-dioxo-2,3-dihydro-1H-isoindol-5-yl]piperidin-4-yl}propan-2-yl)piperazin-1-yl]pyrimidin-4-yl}amino)-N,4-dimethyl-3-oxo-3,4-dihydro-2H-1,4-benzoxazine-2-carboxamide] | – | – | – | – | – | > 100 nM | ≥ 100 nM
CNC(=O)COc1cc2cc(Nc3nc(N4CCO[C@@H](COc5ccc6c(c5)C(=O)N(C5CCC(=O)NC5=O)C6=O)C4)ncc3Cl)ccc2n(C)c1=O (stereo partly drawn) [compound 222, 2-((6-((5-chloro-2-((2R)-2-(((2-(2,6-dioxopiperidin-3-yl)-1,3-dioxoisoindolin-5-yl)oxy)methyl)morpholino)pyrimidin-4-yl)amino)-1-methyl-2-oxo-1,2-dihydroquinolin-3-yl)oxy)-N-methylacetamide] | – | < 50% | – | – | – | > 100 nM | 50 to 100 nM
CC(=O)COc1cc2cc(Nc3nc(N4CCN(C)C(COc5ccc6c(c5)C(=O)N(C5CCC(=O)NC5=O)C6=O)C4)ncc3Cl)ccc2n(C)c1=O (centres unmarked) [compound 194, 5-((4-(5-chloro-4-((1-methyl-2-oxo-3-(2-oxopropoxy)-1,2-dihydroquinolin-6-yl)amino)pyrimidin-2-yl)-1-methylpiperazin-2-yl)methoxy)-2-(2,6-dioxopiperidin-3-yl)isoindoline-1,3-dione] | – | 50 to 70% | – | – | – | 10 to 50 nM | ≥ 100 nM
CC(=O)COc1cc2cc(Nc3nc(N4CCC(OC5CCN(c6ccc7c(c6)C(=O)N(C6CCC(=O)NC6=O)C7=O)CC5)CC4)ncc3Cl)ccc2n(C)c1=O (centres unmarked) [compound 170, 5-(4-((1-(5-chloro-4-((1-methyl-2-oxo-3-(2-oxopropoxy)-1,2-dihydroquinolin-6-yl)amino)pyrimidin-2-yl)piperidin-4-yl)oxy)piperidin-1-yl)-2-(2,6-dioxopiperidin-3-yl)isoindoline-1,3-dione] | – | – | 10 to 50 nM | < 50% | 50 to 100 nM | – | –
CNC(=O)COc1cc2cc(Nc3nc(N4CCCN(CC5CCN(c6ccc7c(c6)C(=O)N(C6CCC(=O)NC6=O)C7=O)CC5)CC4)ncc3Cl)ccc2n(C)c1=O (centres unmarked) [compound 215, 2-((6-((5-chloro-2-(4-((1-(2-(2,6-dioxopiperidin-3-yl)-1,3-dioxoisoindolin-5-yl)piperidin-4-yl)methyl)-1,4-diazepan-1-yl)pyrimidin-4-yl)amino)-1-methyl-2-oxo-1,2-dihydroquinolin-3-yl)oxy)-N-methylacetamide] | – | < 50% | – | – | – | 50 to 100 nM | 10 to 50 nM
CNC(=O)COc1cc2cc(Nc3nc(N4CCC(O[C@H]5C[C@@H](COc6cccc7c6C(=O)N(C6CCC(=O)NC6=O)C7=O)N(C)C5)CC4)ncc3Cl)ccc2n(C(C)C)c1=O (stereo partly drawn) [compound 476, 2-[(6-{[5-chloro-2-(4-{[(3S,5S)-5-({[2-(2,6-dioxopiperidin-3-yl)-1,3-dioxo-2,3-dihydro-1H-isoindol-4-yl]oxy}methyl)-1-methylpyrrolidin-3-yl]oxy}piperidin-1-yl)pyrimidin-4-yl]amino}-2-oxo-1-(propan-2-yl)-1,2-dihydroquinolin-3-yl)oxy]-N-methylacetamide] | 7.30 to 8.00 | < 50% | – | – | – | – | –
CNC(=O)COc1cc2cc(Nc3nc(N4CCN(CC5CN(C6CCN(c7cccc8c7C(=O)N(C7CCC(=O)NC7=O)C8=O)CC6)C5)CC4)ncc3Cl)ccc2n(C(C)C)c1=O (centres unmarked) [compound 524, 2-({6-[(5-chloro-2-{4-[(1-{1-[2-(2,6-dioxopiperidin-3-yl)-1,3-dioxo-2,3-dihydro-1H-isoindol-4-yl]piperidin-4-yl}azetidin-3-yl)methyl]piperazin-1-yl}pyrimidin-4-yl)amino]-2-oxo-1-(propan-2-yl)-1,2-dihydroquinolin-3-yl}oxy)-N-methylacetamide] | > 8.00 | 50 to 70% | – | – | – | – | –
CC(=O)COc1cc2cc(Nc3nc(N4CCN(C(=O)C5CCN(c6ccc7c(c6)C(=O)N(C6CCC(=O)NC6=O)C7=O)CC5)CC4)ncc3Cl)ccc2n(C)c1=O (centres unmarked) [compound 163, 5-(4-(4-(5-chloro-4-((1-methyl-2-oxo-3-(2-oxopropoxy)-1,2-dihydroquinolin-6-yl)amino)pyrimidin-2-yl)piperazine-1-carbonyl)piperidin-1-yl)-2-(2,6-dioxopiperidin-3-yl)isoindoline-1,3-dione] | – | – | 10 to 50 nM | 50 to 70% | 10 to 50 nM | – | –
CC(=O)COc1cc2cc(Nc3nc(N4CCC(CCOC5CN(c6ccc7c(c6)C(=O)N(C6CCC(=O)NC6=O)C7=O)C5)CC4)ncc3Cl)ccc2n(C)c1=O (centres unmarked) [compound 164, 5-(3-(2-(1-(5-chloro-4-((1-methyl-2-oxo-3-(2-oxopropoxy)-1,2-dihydroquinolin-6-yl)amino)pyrimidin-2-yl)piperidin-4-yl)ethoxy)azetidin-1-yl)-2-(2,6-dioxopiperidin-3-yl)isoindoline-1,3-dione] | – | – | 10 to 50 nM | < 50% | > 100 nM | – | –
CC(=O)[C@@H](C)Oc1cc2cc(Nc3nc(N4CCC(CN5CCN(c6ccc7c(c6)C(=O)N([C@H]6CCC(=O)NC6=O)C7=O)CC5)CC4)ncc3Cl)ccc2n(C)c1=O [compound 216, 5-(4-((1-(5-chloro-4-((1-methyl-2-oxo-3-(((R)-3-oxobutan-2-yl)oxy)-1,2-dihydroquinolin-6-yl)amino)pyrimidin-2-yl)piperidin-4-yl)methyl)piperazin-1-yl)-2-((S)-2,6-dioxopiperidin-3-yl)isoindoline-1,3-dione] | – | < 50% | – | – | – | > 100 nM | 10 to 50 nM
CNC(=O)COc1cc2cc(Nc3nc(N4CCC(OCCN5CCN(Cc6ccc(C#Cc7ccc8c(c7)CN(C7CCC(=O)NC7=O)C8=O)cc6)CC5)CC4)ncc3Cl)ccc2n(C)c1=O (centres unmarked) [compound 119, 2-((6-((5-chloro-2-(4-(2-(4-(4-((2-(2,6-dioxopiperidin-3-yl)-1-oxoisoindolin-5-yl)ethynyl)benzyl)piperazin-1-yl)ethoxy)piperidin-1-yl)pyrimidin-4-yl)amino)-1-methyl-2-oxo-1,2-dihydroquinolin-3-yl)oxy)-N-methylacetamide] | – | – | < 10 nM | < 50% | 10 to 50 nM | – | –
CNC(=O)COc1cc2cc(Nc3nc(N4CCC5(CC4)CCN(C4CCN(c6ccc7c(c6)C(=O)N(C6CCC(=O)NC6=O)C7=O)CC4)C5)ncc3Cl)ccc2n(C(C)C)c1=O (centres unmarked) [compound 514, 2-[(6-{[5-chloro-2-(2-{1-[2-(2,6-dioxopiperidin-3-yl)-1,3-dioxo-2,3-dihydro-1H-isoindol-5-yl]piperidin-4-yl}-2,8-diazaspiro[4.5]decan-8-yl)pyrimidin-4-yl]amino}-2-oxo-1-(propan-2-yl)-1,2-dihydroquinolin-3-yl)oxy]-N-methylacetamide] | > 8.00 | < 50% | – | – | – | – | –
CC(=O)COc1cc2cc(Nc3nc(N4CCN(CCCN5CCN(c6ccc7c(c6)CN(C6CCC(=O)NC6=O)C7=O)CC5)CC4)ncc3Cl)ccc2n(C)c1=O (centres unmarked) [compound 137, 3-(5-(4-(3-(4-(5-chloro-4-((1-methyl-2-oxo-3-(2-oxopropoxy)-1,2-dihydroquinolin-6-yl)amino)pyrimidin-2-yl)piperazin-1-yl)propyl)piperazin-1-yl)-1-oxoisoindolin-2-yl)piperidine-2,6-dione] | – | – | < 10 nM | < 50% | 10 to 50 nM | – | –
